Data reported in PubChem BioAssay AID1549 (Sanford-Burnham Center for Chemical Genomics, 2009).
Active and inactive are the calls of the source. No rule for the calls is given here.

Target: Influenza A virus M2 proton channel (A/TW/4845/1999 H1N1)
Experiment: NMR binding screen, influenza A virus M2 proton channel, Kd (AID 1549)
Settings: M2 protein

SMILES	Kd
C/C=C(/C)C(=O)O[C@@H]1[C@H](OC(C)=O)[C@@]2(CO)C(CC1(C)C)C1=CCC3[C@@]4(C)CC[C@H](O[C@@H]5O[C@H](C(=O)O)[C@@H](O[C@@H]6O[C@H](CO)[C@@H](O)[C@H](O)[C@H]6O)[C@H](O)[C@H]5O[C@@H]5O[C@H](CO)[C@@H](O)[C@H](O)[C@H]5O)[C@](C)(CO)C4CC[C@@]3(C)[C@]1(C)C[C@H]2O (stereo not given in full)	> 4 mM (inactive)
Cc1cc(OC(=O)c2ccco2)c([N+](=O)[O-])c(=O)[nH]1	> 4 mM (inactive)
CN1CCC(NC(=O)c2cccnc2)CC1	> 4 mM (inactive)
O=C1CC2OCC=C3CN4CC[C@]56c7ccccc7N1C5[C@H]2[C@H]3CC46 (stereo not given in full)	> 4 mM (inactive)
CC(C)CCCC(C)C1CCC2C3CC(=O)[C@H]4C[C@@H](O)CC[C@]4(C)C3CC[C@]12C (stereo not given in full)	> 4 mM (inactive)
Cc1c(O)c(O)cc2c1CC=C1[C@@]2(C)CC[C@@]2(C)C3C[C@](C)(C(=O)O)CC[C@]3(C)CC[C@]12C (stereo not given in full)	> 4 mM (inactive)
O=C1C=CC2=C3c4cc(O)c(O)cc4CC3(O)COC2=C1O (stereo not given)	> 4 mM (inactive)
COc1ccc(Cl)cc1NC(=O)c1ccco1	> 4 mM (inactive)
O=C(O)c1ccc(-n2cccc2)cc1	> 4 mM (inactive)
CC1(C)NC(=O)N(CN2CCOCC2)C1=O	> 4 mM (inactive)
NC(=O)c1ccc(NC(=O)c2ccco2)cc1	> 4 mM (inactive)
Cc1noc(C)c1C(=O)Nc1sc(C)c(C)c1C#N	> 4 mM (inactive)
CC1CN(C2=NCCN2)CC(C)O1 (stereo not given)	> 4 mM (inactive)
Cc1ccc(C(=O)N2CCC(C(N)=O)CC2)c(Cl)c1	> 4 mM (inactive)
O=c1c(-c2ccco2)[n+]([O-])c2ccccc2n1O	> 4 mM (inactive)
O=C(O)C1CC2CC1CCC2O (stereo not given)	> 4 mM (inactive)
Cc1nccn1CCC(=O)O	> 4 mM (inactive)
COc1ccccc1NC(=O)C1CCC(=O)N1 (stereo not given)	> 4 mM (inactive)
Cn1ccc(NC(=S)NC2CCCC2)n1	> 4 mM (inactive)
CSc1nc2nc(C)cc(=O)n2[nH]1	> 4 mM (inactive)
O=C(O)Cc1nc(-c2ccncc2)n[nH]1	> 4 mM (inactive)
O=c1[nH]cc(NC(=S)N2CCOCC2)c(=O)[nH]1	> 4 mM (inactive)

SMILES	Kd
Nc1c(F)c(F)nc(F)c1F	> 4 mM (inactive)
OCCCc1nc2ccccc2[nH]1	> 4 mM (inactive)
O=C1C2C3C=CC(C3)C2C(=O)N1c1ccccn1 (stereo not given)	> 4 mM (inactive)
Nc1scc[n+]1CC(=O)[O-]	> 4 mM (inactive)
COc1cccc(/C=C2/SC(N)=NC2=O)c1	> 4 mM (inactive)
CN1CN/C(=N\[N+](=O)[O-])N(c2ccccc2)C1	> 4 mM (inactive)
OCc1ccc(N2CCOCC2)nc1	> 4 mM (inactive)
COc1c(-c2coc3cc4c(cc3c2=O)CC(OC(C)=O)C(C)(C)O4)ccc2c1C=CC(C)(C)O2 (stereo not given)	> 4 mM (inactive)
CCNC(CC(=O)Nc1cccc([N+](=O)[O-])c1)C(=O)O (stereo not given)	> 4 mM (inactive)
Nc1ccc(-n2cccn2)cc1	> 4 mM (inactive)
O=C(Nc1ccccc1N1CCCC1)c1cccnc1	> 4 mM (inactive)
COC(=O)c1cc(C)on1	> 4 mM (inactive)
O=C(O)CSc1nc2ccccc2c(=O)[nH]1	> 4 mM (inactive)
O=C(O)CCSc1nc2ccccc2s1	> 4 mM (inactive)
O=c1c(-c2ccccc2)coc2cc(O)cc(O)c12	> 4 mM (inactive)
CN1CCn2c1nc(N1CCCCC1)nc2=O	> 4 mM (inactive)
C=C[C@@H](C1=CC(=O)C(OC)=C(OC)C1=O)c1ccccc1	> 4 mM (inactive)
NCc1cn2ccccc2n1	> 4 mM (inactive)
CCC(C)C(=O)O[C@H]1[C@H](O)C2C(CN3CC(C)CCC3[C@@]2(C)O)C2C[C@]34O[C@]5(O)C(OC(=O)C(C)(O)C(C)O)CC[C@@]3(C)C5C(OC(C)=O)[C@@H](OC(C)=O)C4[C@@]21O (stereo not given in full)	> 4 mM (inactive)
CC12CCC3C(CC3(C)C)C(C)(CCC1=O)O2 (stereo not given)	> 4 mM (inactive)
COC(=O)C[C@@H]1C2(C)C(=O)[C@@H](CC3=C4C=C(OC)O[C@@H](c5ccoc5)[C@]4(C)CCC32)[C@H](O)C1(C)C (stereo not given in full)	> 4 mM (inactive)
CC(=O)Nc1ccc(C(=O)N2CCOCC2)cc1Cl	> 4 mM (inactive)

SMILES	Kd
Cc1cc(C)n2c(SCc3c(C)noc3C)nnc2n1	> 4 mM (inactive)
Cc1c(N=Cc2ccco2)c(=O)n(-c2ccccc2)n1C	> 4 mM (inactive)
O=C(NCN1CCOCC1)c1cccnc1	> 4 mM (inactive)
Cc1noc(-c2ccccc2)c1CO	> 4 mM (inactive)
O=C(c1cc(Cl)cc(Cl)c1)N1CCOCC1	> 4 mM (inactive)
O=C(NCc1cccc(Cl)c1)c1cccnc1	> 4 mM (inactive)
c1ccc(CCN2CCN(CCc3ccccn3)CC2)nc1	> 4 mM (inactive)
CCNC(=O)CC1Nc2ccccc2NC1=O (stereo not given)	> 4 mM (inactive)
O=C(/C=C1\SC(=O)NC1=O)NCc1ccccc1	> 4 mM (inactive)
Nc1ccc(Cc2ccncc2)cc1	> 4 mM (inactive)
CN1CCN(c2ccc(N)cc2)CC1	> 4 mM (inactive)
O=C1C[C@@H](c2ccccc2)Oc2cc(O)cc(O)c21	> 4 mM (inactive)
O=C1C[C@@H](c2ccc(O)cc2)Oc2cc(O)cc(O)c21	> 4 mM (inactive)
Cc1nnc(N2CCN(Cc3ccccc3)CC2)[nH]c1=O	> 4 mM (inactive)
CSc1ccccc1NC(=O)c1ccoc1C	> 4 mM (inactive)
Cc1ccc(-c2nn3c(C)nnc3s2)cc1N	> 4 mM (inactive)
CCSc1nc(C)c(CC)c(C)c1C(N)=O	> 4 mM (inactive)
O=C(O)c1ccc2c(c1)OCCCO2	> 4 mM (inactive)
O=C(/C(=N\O)n1cncn1)c1ccccc1Cl	> 4 mM (inactive)
C[C@@H]1CC[C@@]2(OC1)OC1CC3C4CC=C5C[C@@H](O)CC[C@]5(C)C4CC[C@]3(C)C1[C@@H]2C (stereo not given in full)	> 4 mM (inactive)
N#Cc1cnn(Cc2ccc(Cl)cc2)c1N	> 4 mM (inactive)
CCCOn1nnnc1-c1ccccc1	> 4 mM (inactive)

SMILES	Kd
CC(=O)C1CC[C@H]2C3CC[C@H]4C[C@H](O)CC[C@]4(C)C3CC[C@]12C (stereo not given in full)	> 4 mM (inactive)
Nc1nc2[nH]c(=O)c(=O)[nH]c2c(=O)[nH]1	> 4 mM (inactive)
CC(=O)N1CCN(c2ccc(O)cc2)CC1	> 4 mM (inactive)
CCN1CCC(=NO)CC1	> 4 mM (inactive)
OC1CC(c2ccccc2)NC2(CCCC2)C1 (stereo not given)	> 4 mM (inactive)
O=C(Nc1nc2ccccc2s1)c1ccc(=O)[nH]n1	> 4 mM (inactive)
NC(=O)CC1Sc2ccccc2NC1=O (stereo not given)	> 4 mM (inactive)
NC(=O)c1ccsc1NC(=O)c1ccccc1[N+](=O)[O-]	> 4 mM (inactive)
CCOc1ccc(C(=O)c2ccncc2)cc1	> 4 mM (inactive)
COc1c2c(c(CC=C(C)C)c3oc(=O)c(-c4ccc(O)cc4)c(O)c13)OC(C)(C)C=C2	> 4 mM (inactive)
NCc1ccc(S(=O)(=O)O)cc1	> 4 mM (inactive)
O=c1c2ccccc2[nH]c2ncccc12	> 4 mM (inactive)
CC(=O)O[C@H]1C[C@@H](OC(C)=O)C(C)(C)C2C[C@@H](OC(C)=O)[C@@]3(C)C4=CC(=O)O[C@@H](c5ccoc5)[C@]4(C)CCC3[C@]21C (stereo not given in full)	> 4 mM (inactive)
O=C(Nc1ccccn1)C(=O)N1CCCC1	> 4 mM (inactive)
O=C(Nn1cnnc1)c1cc2c(s1)CCCC2	> 4 mM (inactive)
N#CCCn1ccnc1-c1ccccc1	> 4 mM (inactive)
Cc1ccc(/C=C2/NC(=S)NC2=O)s1	> 4 mM (inactive)
O=C(Nc1nnc(-c2ccccc2Cl)o1)c1ccco1	> 4 mM (inactive)
Cc1noc(C)c1C(=O)Nc1ccc2c(c1)CCC2	> 4 mM (inactive)
